Assay [1] concerns the target T1, threonine--tRNA ligase (Plasmodium falciparum, UniProt Q8IIA4).
T1 sequence (Q8IIA4 whole entry): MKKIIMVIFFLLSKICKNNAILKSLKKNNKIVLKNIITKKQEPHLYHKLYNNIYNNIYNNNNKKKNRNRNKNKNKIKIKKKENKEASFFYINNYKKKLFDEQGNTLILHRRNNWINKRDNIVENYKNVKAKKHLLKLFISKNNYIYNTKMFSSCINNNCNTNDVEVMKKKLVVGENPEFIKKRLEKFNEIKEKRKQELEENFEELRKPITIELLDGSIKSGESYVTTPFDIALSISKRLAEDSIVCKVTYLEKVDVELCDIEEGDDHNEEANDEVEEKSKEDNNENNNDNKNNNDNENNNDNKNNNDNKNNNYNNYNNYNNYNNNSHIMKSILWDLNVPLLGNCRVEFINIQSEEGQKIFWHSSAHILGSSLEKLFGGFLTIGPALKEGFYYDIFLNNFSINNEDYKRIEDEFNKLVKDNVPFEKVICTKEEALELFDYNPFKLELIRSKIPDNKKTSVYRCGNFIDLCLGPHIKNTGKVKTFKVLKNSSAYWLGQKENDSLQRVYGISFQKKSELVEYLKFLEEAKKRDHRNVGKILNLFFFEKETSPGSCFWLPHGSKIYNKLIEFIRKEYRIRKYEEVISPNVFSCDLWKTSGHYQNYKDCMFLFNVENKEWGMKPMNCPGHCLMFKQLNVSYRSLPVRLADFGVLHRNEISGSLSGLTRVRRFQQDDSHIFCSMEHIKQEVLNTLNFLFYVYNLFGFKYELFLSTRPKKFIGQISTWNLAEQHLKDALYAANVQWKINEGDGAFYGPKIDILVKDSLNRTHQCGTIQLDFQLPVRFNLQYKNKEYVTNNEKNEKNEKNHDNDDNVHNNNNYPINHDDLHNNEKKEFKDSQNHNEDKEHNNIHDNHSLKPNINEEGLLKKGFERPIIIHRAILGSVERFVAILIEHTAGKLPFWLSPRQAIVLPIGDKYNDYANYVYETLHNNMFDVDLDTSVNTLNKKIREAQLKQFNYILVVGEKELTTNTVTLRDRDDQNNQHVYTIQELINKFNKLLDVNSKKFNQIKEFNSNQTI
In words: Inhibition of Plasmodium falciparum Threonyl tRNA synthetase.

In assay [2] the target is T1, threonine--tRNA ligase.
Description: Inhibition of 6xHis-tag recombinant Plasmodium falciparum threonyl tRNA synthetase expressed in Escherichia using L-threonine and total tRNA by luminescence based assay
Assay [3] has as its target T1, threonine--tRNA ligase. This is another data set of the same source.

Usually IC50 stands for the concentration that inhibits the measured activity by half. A higher IC50 goes with lower potency. Take `C[C@@H](O)[C@H](N)C(=O)NS(=O)(=O)OC[C@H]1O[C@@H](n2cnc3c(N)ncnc32)[C@H](O)[C@@H]1O`: in assay [1], the half-inhibitory concentration (IC50) amounted to 160 nM.

Molecule `C[C@@H](O)[C@H](N)C(=O)NS(=O)(=O)/C=C/c1cccc(-c2cc(N)ncn2)c1` displayed a concentration for half-maximal inhibition (IC50) in assay [1] of 57 nM.

`C[C@@H](O)[C@H](N)C(=O)NS(=O)(=O)/C=C/c1ccccc1` gave a 50% inhibitory concentration (IC50) in assay [1] of 33000 nM.

`C[C@@H](O)[C@H](N)C(=O)NS(=O)(=O)Oc1ccccc1` gave an IC50 in assay [2] of 51000 nM. This counts as double-digit micromolar.

In assay [2], `C[C@@H](O)[C@H](N)C(=O)NS(=O)(=O)c1nc2cc(-c3cc(N)ncn3)ccc2s1` registered a half-inhibitory concentration (IC50) of 100 nM.

Molecule `C[C@@H](O)[C@H](N)C(=O)NS(=O)(=O)Oc1cccc2ccccc12` came in with a half-maximal inhibitory concentration (IC50) in assay [2] of 36000 nM.

With `C[C@@H](O)[C@H](N)C(=O)NS(=O)(=O)c1nc2ccccc2s1`, half-maximal inhibition in assay [2] (IC50) was put at 71000 nM.

On to `C[C@@H](O)[C@H](N)C(=O)NS(=O)(=O)Oc1cccc2cccnc12`, for which, in assay [2], the IC50 was 55000 nM.

In assay [2], `C[C@@H](O)[C@H](N)C(=O)NS(=O)(=O)Oc1cccc2nn(-c3cc(N)ncn3)cc12` registered an IC50 of 700 nM.

The molecule `C[C@@H](O)[C@H](N)C(=O)NS(=O)(=O)Oc1ccc(-c2cc(N)ncn2)cc1` displayed a half-inhibitory concentration (IC50) in assay [2] of 800 nM.

In assay [2], `C[C@@H](O)[C@H](N)C(=O)NS(=O)(=O)Oc1ccc2ccccc2c1` registered a half-inhibitory concentration (IC50) of 30000 nM.

For the molecule `C[C@@H](O)[C@H](N)C(=O)NP(=O)(O)OC[C@@H]1C[C@H](O)[C@H](n2cnc3c(N)ncnc32)O1`, the IC50 in assay [1] amounted to 440 nM.

By Ki is commonly meant a dissociation constant, usually derived from enzyme kinetics or from competition with a known ligand. A low value points to a stronger hold on the target. As for `C[C@@H]1C[C@H](C)C[C@H](C)[C@@H](O)CC(=O)O[C@H]([C@@H]2CCC[C@H]2C(=O)O)C/C=C/C=C(/C#N)[C@H](O)[C@@H](C)C1` [BORRELIDIN], the half-maximal inhibitory concentration (IC50) in assay [1] was determined as 43 nM. In assay [3], this molecule gave a Ki of 160 nM.

(Values after ChEMBL document CHEMBL5357018, “Discovery of Malarial Threonyl tRNA Synthetase Inhibitors by Screening of a Focused Fragment Library” (ACS Med Chem Lett, 2024).)
